Here are results for 15 compounds from patent US4218472A, “Geminally disubstituted indene derivatives” (AB Kabi, priority 1977, dated 1980).

Where two headings read alike, the source gives them in different places.

Holding throughout (assay type): cell-based
One experiment relates to rat vas deferens. Kind of experiment: Effect on Rat Isolated Vas Deferens. Particulars: for minimal effective concentration: read-out: threshold conc.; for Emax: read-out: max. effect, % of NA max.; for effect on rat vas deferens (in words): noradrenaline-like activity. The source says:
Effect on Rat Isolated Vas Deferens
Male albino rats weighing 250-350 g were anaesthetized with diethyl ether and then decapitated. The vas deferens was removed, freed from mesenteric attachments and then suspended in Kreb's bicarbonate solution (Hukovic, 1961). Threads were attached to both ends of the organ. The distal part was tied to a fixed pin in the organ bath and the proximal part to a force displacement transducer connected to a recording system. […] The load on the organ was adjusted to 0.5 g. The vas deferens was allowed to stabilize for 15 minutes before dose-response curves were obtained.
The technique for making cumulative dose-response curves in accordance with van Rossum (1963) was employed. The stimulating drug, noradrenaline (NA), was added to the bath in a manner to achieve geometrically increasing concentrations in the organ bath without washings in between. After each injection of NA the organ was allowed to contract until a state of equilibrium had been reached, and then the next dose of NA was added. This procedure was repeated until no further increase in contraction was obtained. The dosage of NA was adapted to give a concentration step in the bath of 1/2 log 10. The tested concentration interval was 10^-8 -10^-4 M, 3.10^-4 M plus maximum effect at 3 10^-5 and 10^-4 M. Compounds of formula I, identified as 2-12, and comparison compounds 13-15, were tested by the same technique. The compounds conform to the formula below except where indicated for other values of R^1, R^2 and R^3.

Another experiment concerns urethra strip (cat). Kind of experiment: Effect on urethra strip of cat. The settings on record: Felis catus, isometric tension, Tyrode solution 37° C., pH 7.5. How it is done: (§1) Effect on urethra strip of cat and aortic strip of rabbit Adult male and female cats weighing 2-5 kg were used. The animals were anaesthetized with pentobarbital, 30-50 mg/kg intraperitoneally. An abdominal incision was made and the bladder and urethra were dissected free and cut. The bladder and urethra were placed in Tyrode solution of room temperature. Care was taken to keep the tissue moist during the preparation. The bladder was cut away and the urethra was cut longitudinally. Segments of 2-3 mm width were mounted in an organ-bath with Tyrode solution at 37° C. and connected to a strain gauge transducer so that the isometric tension could be recorded. The preparation was maintained at pH 7.5 by bubbling a mixture of 93.5 volume-% O2 and 6.5 volume-% CO2 through the solution. This experimental set up thus allowed the recording of circular muscle activity as isometric tension changes. The initial tension was set at approximately 0.5 g. After mounting, the preparation was allowed 1 hour for acclimatization before starting the experiment. All recordings were made from the base line. The drugs were added directly to the organ-baths and cumulative dose-response curves were recorded. Noradrenaline has consistently been used as a reference drug for agonistic action. The substances tested as agonists were noradrenaline bitartrate (NA) and the above compound No. 3. […]

The next experiment has as its system aortic strip (rabbit). Kind of experiment: Effect on aortic strip of rabbit. Particulars: Oryctolagus cuniculus. The method, then: as §1
Setting [1] is: rat isolated vas deferens, contraction relative to noradrenaline maximum.
Where [2] appears, read: rat isolated vas deferens, cumulative dose-response, 31° C.
Setting [3] is: Rattus norvegicus, rat isolated vas deferens, cumulative dose-response, 31° C.

Consider “2-Isopropylamino-1-[spiro(cyclopentane-1,1'-indene)-3'-yl]ethanol [Example 12]”, for which the “max. effect, % of NA max.” value in the experiment with rat vas deferens (setting [1]) stood at 35%.
For “2-Pyrrolidino-1-[spiro)cyclopentane-1,1'-indene)-3'-yl]-ethanol [Example 5]”, the “max. effect, % of NA max.” value with rat vas deferens (setting [1]) is reported as 50%. In addition, in the experiment on rat vas deferens (setting [2]), the threshold conc. is listed as 10^-5 - 10^-4 M.
For the compound “2-tert.-Butylamino-1-[spiro(cyclopentane-1,1'-indene)-3'-yl]ethanol [Example 11]”, the “max. effect, % of NA max.” value with rat vas deferens (setting [1]) came to 90%.
For the compound `CNCC(O)C1=CC2(CCCC2)c2ccccc21` (racemic) [No. 3, 2-Methylamino-1-[spiro(cyclopentane-1,1'-indene)-3'-yl]ethanol], the minimal effective concentration in the experiment on rat vas deferens (setting [3]) came out at 0.03 µM. The Emax in the experiment on rat vas deferens (setting [1]) amounted to 100%. Moreover, the EC50 (usually the concentration at which the effect is half-maximal) in the experiment on rat vas deferens (setting [2]) is 0.15 µM; in the experiment with urethra strip (cat) it was 0.69 µM; in the experiment on aortic strip (rabbit) it was 0.045 µM.
As for `NC[C@H](O)c1ccc(O)c(O)c1` [No. 1, noradrenaline, reference compound], in the experiment with rat vas deferens (setting [3]), the minimal effective concentration turned out to be 1 µM. For the same compound, the Emax in the experiment on rat vas deferens (setting [1]) came out at 100%. Further, the EC50 with rat vas deferens (setting [2]) worked out at 30 µM; in the experiment with urethra strip (cat), 27 µM; in the experiment with aortic strip (rabbit), 0.18 µM.
Take `NCC(O)C1=CC2(CCCC2)c2ccccc21` (stereo not drawn) [No. 2, 2-Amino-1-[spiro(cyclopentane-1,1'-indene)-3'-yl]ethanol]: the minimal effective concentration with rat vas deferens (setting [3]) turned out to be 0.1 µM. For the same compound, the Emax with rat vas deferens (setting [1]) was 100%. In addition, a half-maximal effect in the experiment on rat vas deferens (setting [2]) (EC50) was put at 40 µM.
On to `CCNCC(O)C1=CC2(CCCC2)c2ccccc21` (stereo not drawn) [No. 4, 2-Ethylamino-1-[spiro(cyclopentane-1,1'-indene)-3'-yl]ethanol], for which the minimal effective concentration with rat vas deferens (setting [3]) worked out at 0.5 µM. For the same compound, the Emax in the experiment with rat vas deferens (setting [1]) is 85%. In addition, the response in the experiment on rat vas deferens (setting [2]) was half-maximal at 1.5 µM (EC50).
`CC(C)NCC(O)C1=CC2(CCCC2)c2ccccc21` (stereo not drawn) [No. 6]: the Emax with rat vas deferens (setting [1]) was 90%. Further, in the experiment with rat vas deferens (setting [2]), the EC50 is 4 µM.
In the same order, the values of `NCC(O)C1=CC2(CCC2)c2ccccc21` (stereo not drawn) [No. 7] are 120% and 15 µM.
As to `CC1(C)C=C(C(O)CN)c2ccccc21` (stereo not drawn) [No. 8, 2-Amino-1-(1,1-dimethylindene-3-yl)ethanol], in the experiment with rat vas deferens (setting [3]), the minimal effective concentration came to 0.3 µM. Also, the Emax with rat vas deferens (setting [1]) stood at 100%. Moreover, the EC50 in the experiment on rat vas deferens (setting [2]) turned out to be 2 µM.
Take `NCC(O)C1=CC2(CCCCC2)c2ccccc21` (stereo not drawn) [No. 9, 2-Amino-1-[spiro(cyclohexane-1,1'-indene)-3'-yl]ethanol]: the minimal effective concentration with rat vas deferens (setting [3]) is 3 µM. The Emax with rat vas deferens (setting [1]) is 70%. Besides, it took 15 µM to reach a half-maximal effect in the experiment with rat vas deferens (setting [2]) (EC50).
The like results for `COc1ccc2c(c1)C(C(O)CN)=CC21CCCC1` (stereo not drawn) [No. 10, 2-Amino-1-[5'-methoxyspiro(cyclopentane-1,1'-indene)-3'-yl]-ethanol] were, in that order, 5 µM, 65% and 50 µM.
For `CN(C)CC(=O)C1=CC2(CCCC2)c2ccccc21` [No. 13, reference compound], in the experiment with rat vas deferens, the “effect on rat vas deferens (in words)” value is “inactive”. In the experiment with rat vas deferens (setting [1]), the Emax is 0%.
For the compound `CNCC(O)C1CC2(CCCC2)c2ccccc21` (stereo not drawn) [No. 14, reference compound], the “effect on rat vas deferens (in words)” value in the experiment on rat vas deferens is listed as “effect disappears”. Moreover, the Emax in the experiment with rat vas deferens (setting [1]) worked out at 0%.
Turning to `CNCCC1=CC2(CCCC2)c2ccccc21` [No. 15, reference compound], in the experiment with rat vas deferens (Rattus norvegicus), the Emax turned out to be 0%. Besides, the “effect on rat vas deferens (in words)” value in the experiment with rat vas deferens is recorded as “effect disappears”.
